Publication PMC9350837, “Erwinia tasmaniensis levansucrase shows enantiomer selection for (S)-1,2,4-butanetriol” (Acta Crystallographica. Section F, Structural Biology …, 2022)

Molecular target: T1, EtLsc (Erwinia tasmaniensis levansucrase) (Erwinia tasmaniensis, UniProt B2VCC3)
T1 construct: gene lsc; lsc gene amplified from Et1/99, pMCSG49 vector, E. coli BL21(DE3) Star pLysS; His6 tag cleaved with TEV protease; IMAC and size exclusion; catalytic triad Asp46, Asp203, Glu287
Experiment: microscale thermophoresis, label-free (Monolith NT.LabelFree)
Format: binding

T1 sequence (B2VCC3 entry or part of it): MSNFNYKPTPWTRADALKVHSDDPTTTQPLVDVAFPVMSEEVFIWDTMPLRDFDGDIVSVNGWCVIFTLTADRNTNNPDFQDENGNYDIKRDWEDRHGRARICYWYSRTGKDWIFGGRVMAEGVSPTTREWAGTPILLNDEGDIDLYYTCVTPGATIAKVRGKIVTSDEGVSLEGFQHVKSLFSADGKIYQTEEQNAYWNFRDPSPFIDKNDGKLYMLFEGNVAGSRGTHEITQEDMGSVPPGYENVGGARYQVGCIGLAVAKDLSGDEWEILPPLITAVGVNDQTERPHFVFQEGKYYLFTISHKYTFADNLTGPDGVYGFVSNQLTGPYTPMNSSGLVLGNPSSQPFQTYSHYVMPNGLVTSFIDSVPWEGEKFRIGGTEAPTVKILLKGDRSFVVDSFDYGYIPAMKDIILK

OCC[C@H](O)CO (mixture of isomers) [(S)-1,2,4-butanetriol]
Kd: 84.9 ± 13.4 mM
